Earlier results in patent US10016389B2, “Method of making liposomes, liposome compositions made by the methods, and methods of using the same” (LivOn Laboratories, priority 2011, dated 2018).

Columns and labels:
[1] = not given; remark: listed apart in the source
[2] = rat populations
[3] = not given; remark: listed apart in the source
[4] = not given; remark: listed apart in the source
[5] = 1000 mg daily, 42 days

## O=C(O)CCCCC1CCSS1 (racemic) [racemic ALA, alpha lipoic acid]
Oral 600, 1200 or 1800 mg/day, after 4 weeks
  improvement of insulin sensitivity: 25%
Single intravenous infusion of 1000 mg, vs placebo infusion
  improvement of insulin-stimulated glucose disposal (insulin sensitivity): 50%
[1]
  survival rate after a stroke vs untreated animals: four times greater survival rate

## O=C1O[C@H]([C@@H](O)CO)C(O)=C1O [vitamin C, L-ascorbic acid]
[2]
  oral LD50: 11,900 mg per kg
[3]; 3 g orally every 4 hours, predicted by pharmacokinetic modeling
  peak plasma concentrations: 220 µmol/L
[3]; in vivo
  half-life: 30 min
[3]; intravenous administration
  plasma concentrations: ≤ 26,000 micromol/L
[4]; Linxian trial, 120 mg daily plus molybdenum for 5-6 years, 10 years follow-up
  reduction of risk of cerebrovascular deaths: 8%
[4]; ≥700 mg/day, pooled analysis of nine studies
  lower risk of coronary heart disease: 25%
[5]; fell from 169.33 mg/dl
  average fasting blood glucose levels: 144.80 mg/dL
[5]; reduced from 130.95 mg/dl
  average LDL: 125.91 mg/dL
[5]; reduced from 8,82%
  Average HbA1C: 7.66%
[5]; reduced from 16.91 microunits/mL
  Insulin levels: 8.77 microunits/mL
